SMILES strings stand for the structures. *1 amine or outer side, *2 acyl side, *3 side chain or, on linkers, in order; H or OH if unused. Where a SMILES comes first, the peptide text is derived from it. Side-chain parts run from the residue outwards. [ ]: non-standard residue; d: D form. The star is where a group is joined. NMePhe(4-NH(5-NH2-Trz-3-yl)) = CN[C@@H](Cc1ccc(Nc2n[nH]c(N)n2)cc1)C(=O)O; Shikimoyl = O=C(C1=C[C@@H](O)[C@@H](O)[C@H](O)C1)*; dPhe(4-Cl) = N[C@H](Cc1ccc(Cl)cc1)C(=O)O; d2Nal = N[C@H](Cc1ccc2ccccc2c1)C(=O)O; Lys(iPr) = CC(C)NCCCC[C@H](N)C(=O)O; NMeY = CN[C@@H](Cc1ccc(O)cc1)C(=O)O; Ethylenediamine = C(CN[*:2])N[*:1]; d3Pal = N[C@H](Cc1cccnc1)C(=O)O; Nicotinoyl = O=C(c1cccnc1)*; dOrn = NCCC[C@@H](N)C(=O)O; 2Furoyl = O=C(c1ccco1)*; CO = O=C([*:1])[*:2]; GABA = NCCCC(=O)O; azaGly = NNC(=O)O; Sar = CNCC(=O)O

The experiment concerns the target T1, LHRH receptor (Rattus norvegicus, UniProt P30969).
T1 construct: endogenous in cells
T1 sequence (P30969 1-327): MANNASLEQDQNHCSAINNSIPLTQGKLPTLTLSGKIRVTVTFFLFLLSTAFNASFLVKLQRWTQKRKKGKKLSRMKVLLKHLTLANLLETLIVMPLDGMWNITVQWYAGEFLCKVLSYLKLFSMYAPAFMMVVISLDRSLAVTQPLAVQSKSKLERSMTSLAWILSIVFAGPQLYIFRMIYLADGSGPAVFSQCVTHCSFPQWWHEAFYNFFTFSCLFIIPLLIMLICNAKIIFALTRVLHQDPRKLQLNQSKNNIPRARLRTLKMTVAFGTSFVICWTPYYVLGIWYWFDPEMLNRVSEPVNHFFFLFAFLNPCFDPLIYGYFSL
In words: in vitro LHRH antagonist potency (pA2) against the agonist leuprolide. The class given is cell-based. The following applies: negative logarithm of the antagonist concentration which shifts the response curve produced by the agonist leuprolide to two-fold higher concentration. Here is the method: Representative compounds of the present invention were evaluated in in vitro tests for receptor binding (pKI) and for LHRH antagonist potency (pA2). The tests employed the methods detailed in F. Haviv, et al., J. Med. Chem., 32: 2340-2344 (1989). The receptor binding affinities (pKI) are the negative logarithms of the equilibtirum dissociation constants (pA2) are the negative logarithms of the concentration of antagonist which shift the response curve roduced by the agonist leuprolide to two-fold higher concentration. (Leuprolide is the LHRH agonist having the structure 5-oxo-Pro^1 -His^2 -Trp^3 -Ser^4 -Tyr^5 -D-Leu^6 -Leu^7 -Arg^8 -Pro^9 -NHEt and is disclosed and claimed in U.S. Pat. No. 4,005,063.) Typically pA2 values of 9.5 or greater are indicative of good LHRH antagonist potency.
`CC(=O)N[C@H](Cc1ccc2ccccc2c1)C(=O)N[C@H](Cc1ccc(Cl)cc1)C(=O)N[C@H](Cc1cccnc1)C(=O)N[C@@H](CO)C(=O)N(C)[C@@H](Cc1ccc(O)cc1)C(=O)N[C@H](CCCCNC(=O)CNC(=O)C1=C[C@@H](O)[C@@H](O)[C@H](O)C1)C(=O)N[C@@H](CC(C)C)C(=O)N[C@@H](CCCNC(=N)N)C(=O)N1CCC[C@H]1C(=O)N[C@H](C)C(N)=O` [Example 17, NAc-D2Nal^1 -D4ClPhe^2 -D3Pal^3 -Ser^4 -NMeTyr^5 -DLys(N-epsilon-Gly-Shikimyl)^6 -Leu^7 -Arg^8 -Pro^9 -DAla^10 NH2] (Ac-[d2Nal][dPhe(4-Cl)][d3Pal]S[NMeY][dK]([Gly-Shikimoyl])LRP[dA]-NH2): the Kb is 0.00724 nM.

For `CC(=O)N[C@H](Cc1ccc2ccccc2c1)C(=O)N[C@H](Cc1ccc(Cl)cc1)C(=O)N[C@H](Cc1cccnc1)C(=O)N[C@@H](CO)C(=O)N(C)[C@@H](Cc1ccc(Nc2n[nH]c(N)n2)cc1)C(=O)N[C@H](CCCCNC(=O)CNC(=O)c1cccnc1)C(=O)N[C@@H](CC(C)C)C(=O)N[C@@H](CCCCNC(C)C)C(=O)N1CCC[C@H]1C(=O)N[C@H](C)C(N)=O` [Example 45, NAc-D2Nal^1 -D4ClPhe^2 -D3Pal^3 -Ser^4 -NMePhe(Atz)^5 -DLys(N-epsilon-Gly-Nicotinyl)^6 -Leu^7 -Lys(N-epsilon-Isopropyl)^8 -Pro^9 -DAla^10 NH2] (Ac-[d2Nal][dPhe(4-Cl)][d3Pal]S[NMePhe(4-NH(5-NH2-Trz-3-yl))][dK]([Gly-Nicotinoyl])L[Lys(iPr)]P[dA]-NH2), the antagonist equilibrium constant (Kb) is 0.00417 nM.

As to `CC(=O)N[C@H](Cc1ccc2ccccc2c1)C(=O)N[C@H](Cc1ccc(Cl)cc1)C(=O)N[C@H](Cc1cccnc1)C(=O)N[C@@H](CO)C(=O)N(C)[C@@H](Cc1ccc(O)cc1)C(=O)N[C@H](CCCCNC(=O)CCCNC(=O)NNC(=O)c1cccnc1)C(=O)N[C@@H](CC(C)C)C(=O)N[C@@H](CCCCNC(C)C)C(=O)N1CCC[C@H]1C(=O)N[C@H](C)C(N)=O` [Example 25b, NAc-D2Nal^1 -D4ClPhe^2 -D3Pal^3 -Ser^4 -NMeTyr^5 -DLys[N-epsilon-(gamma-Aminobutyryl)-Azagly-Nicotinyl]^6 -Leu^7 -Lys(N-epsilon-Isopropyl)^8 -Pro^9 -DAla^10 NH2] (Ac-[d2Nal][dPhe(4-Cl)][d3Pal]S[NMeY][dK]([GABA-azaGly-Nicotinoyl])L[Lys(iPr)]P[dA]-NH2), the Kb is 0.0407 nM.

Take `CC(=O)N[C@H](Cc1ccc2ccccc2c1)C(=O)N[C@H](Cc1ccc(Cl)cc1)C(=O)N[C@H](Cc1cccnc1)C(=O)N[C@@H](CO)C(=O)N(C)[C@@H](Cc1ccc(O)cc1)C(=O)N[C@H](CCCCNC(=O)[C@@H](CO)NC(=O)CNC(=O)C1=C[C@@H](O)[C@@H](O)[C@H](O)C1)C(=O)N[C@@H](CC(C)C)C(=O)N[C@@H](CCCNC(=N)N)C(=O)N1CCC[C@H]1C(=O)N[C@H](C)C(N)=O` [Example 48j, NAc-D2Nal^1 -D4ClPhe^2 -D3Pal^3 -Ser^4 -NMeTyr^5 -DLys(N-epsilon-D-Ser-Gly-Shikimyl)^6 -Leu^7 -Arg^8 -Pro^9 -DAla^10 NH2] (Ac-[d2Nal][dPhe(4-Cl)][d3Pal]S[NMeY][dK]([dS-Gly-Shikimoyl])LRP[dA]-NH2): the Kb was 0.017 nM.

In the case of `CC(=O)N[C@H](Cc1ccc2ccccc2c1)C(=O)N[C@H](Cc1ccc(Cl)cc1)C(=O)N[C@H](Cc1cccnc1)C(=O)N[C@@H](CO)C(=O)N(C)[C@@H](Cc1ccc(O)cc1)C(=O)N[C@H](CCCNC(=O)[C@@H](CO)NC(=O)C1=C[C@@H](O)[C@@H](O)[C@H](O)C1)C(=O)N[C@@H](CC(C)C)C(=O)N[C@@H](CCCNC(=N)N)C(=O)N1CCC[C@H]1C(=O)N[C@H](C)C(N)=O` [Example 49d, NAc-D2Nal^1 -D4ClPhe^2 -D3Pal^3 -Ser^4 -NMeTyr^5 -DOrn(N-epsilon-DSer-Shikimyl)^6 -Leu^7 -Arg^8 -Pro^9 -DAla^10 NH2] (Ac-[d2Nal][dPhe(4-Cl)][d3Pal]S[NMeY][dOrn]([dS-Shikimoyl])LRP[dA]-NH2), the Kb was 0.00166 nM.

As for `CC(=O)N[C@H](Cc1ccc2ccccc2c1)C(=O)N[C@H](Cc1ccc(Cl)cc1)C(=O)N[C@H](Cc1cccnc1)C(=O)N[C@@H](CO)C(=O)N(C)[C@@H](Cc1ccc(O)cc1)C(=O)N[C@H](CCCCNC(=O)NNC(=O)c1cccnc1)C(=O)N[C@@H](CC(C)C)C(=O)N[C@@H](CCCCNC(C)C)C(=O)N1CCC[C@H]1C(=O)N(C)CC(N)=O` [Example 60, NAc-D2Nal^1 -D4ClPhe^2 -D3Pal^3 -Ser^4 -NMeTyr^5 -DLys(N-epsilon-Azagly-Nicotinyl)^6 -Leu^7 -Lys(N-epsilon-Isopropyl)^8 -Pro^9 -Sar^10 NH2] (Ac-[d2Nal][dPhe(4-Cl)][d3Pal]S[NMeY][dK]([azaGly-Nicotinoyl])L[Lys(iPr)]P[Sar]-NH2), the Kb is 0.0282 nM.

Take `CC(=O)N[C@H](Cc1ccc2ccccc2c1)C(=O)N[C@H](Cc1ccc(Cl)cc1)C(=O)N[C@H](Cc1cccnc1)C(=O)N[C@@H](CO)C(=O)N(C)[C@@H](Cc1ccc(O)cc1)C(=O)N[C@H](CCCCNC(=O)NCCNC(=O)c1ccco1)C(=O)N[C@@H](CC(C)C)C(=O)N[C@@H](CCCNC(=N)N)C(=O)N1CCC[C@H]1C(=O)N[C@H](C)C(N)=O` [Example 36, NAc-D2Nal^1 -D4ClPhe^2 -D3Pal^3 -Ser^4 -NMeTyr^5 -DLys[N-epsilon-(N'-Carbonyl-Diaminoethane-N"-Furoyl)]^6 -Leu^7 -Arg^8 -Pro^9 -DAla^10 NH2] (Ac-[d2Nal][dPhe(4-Cl)][d3Pal]S[NMeY][dK]([CO-Ethylenediamine-2Furoyl])LRP[dA]-NH2): the Kb is 0.0107 nM.

Regarding `CC(=O)N[C@H](Cc1ccc2ccccc2c1)C(=O)N[C@H](Cc1ccc(Cl)cc1)C(=O)N[C@H](Cc1cccnc1)C(=O)N[C@@H](CO)C(=O)N(C)[C@@H](Cc1ccc(O)cc1)C(=O)N[C@H](CCCCNC(=O)CNC(=O)c1ccco1)C(=O)N[C@@H](CC(C)C)C(=O)N[C@@H](CCCCNC(C)C)C(=O)N1CCC[C@H]1C(=O)N[C@H](C)C(N)=O` [Example 6a, NAc-D2Nal^1 -D4ClPhe^2 -D3Pal^3 -Ser^4 -NMeTyr^5 -DLys(N-epsilon-Gly-2-Furoyl)^6 -Leu^7 -Lys(N-epsilon-Isopropyl)^8 -Pro^9 -DAla^10 NH2] (Ac-[d2Nal][dPhe(4-Cl)][d3Pal]S[NMeY][dK]([Gly-2Furoyl])L[Lys(iPr)]P[dA]-NH2), the Kb is 0.0158 nM.

For the molecule `CC(=O)N[C@H](Cc1ccc2ccccc2c1)C(=O)N[C@H](Cc1ccc(Cl)cc1)C(=O)N[C@H](Cc1cccnc1)C(=O)N[C@@H](CO)C(=O)N(C)[C@@H](Cc1ccc(Nc2n[nH]c(N)n2)cc1)C(=O)N[C@H](CCCCNC(=O)NNC(=O)c1cccnc1)C(=O)N[C@@H](CC(C)C)C(=O)N[C@@H](CCCCNC(C)C)C(=O)N1CCC[C@H]1C(=O)N[C@H](C)C(N)=O` [Example 46, NAc-D2Nal^1 -D4ClPhe^2 -D3Pal^3 -Ser^4 -NMePhe(Atz)^5 -DLys(N-epsilon-Azagly-Nicotinyl)^6 -Leu^7 -Lys(N-epsilon-Isopropyl)^8 -Pro^9 -DAla^10 NH2] (Ac-[d2Nal][dPhe(4-Cl)][d3Pal]S[NMePhe(4-NH(5-NH2-Trz-3-yl))][dK]([azaGly-Nicotinoyl])L[Lys(iPr)]P[dA]-NH2), the Kb is 0.011 nM.

The term Kb denotes the equilibrium dissociation constant of an antagonist, usually derived from a functional assay.

These data come from patent publication US5698522A, “6-position modified decapeptide LHRH antagonists” (Abbott Laboratories, priority 1995, dated 1997).
